In patent US11912645B2, “Lipopeptide compounds for the treatment of pain disorders” (INSERM (Institut National de la Santé et de la Recherche …, priority 2017, dated 2024):

Legend:
[1] = test system: DSS-induced visceral hypersensitivity; assay: DSS-induced colitis visceral hypersensitivity, visceromotor response to colorectal distension; format: in vivo, mouse; settings: DSS 3% 5 days; 100 μL intracolonic 10 μM at day 5; CRD 15-60 mm Hg
Experimental: FIG. 9: C12-Asn-GABA Inhibits DSS-induced visceral hypersensitivity. Mice received DSS 3% in their drinking water for 5 days to induce colitis. At day 5, mice were intracolonically administrated with C12-Asn-GABA (10 μM; black circles) or vehicle (40% ethanol; white circles). Thirty minutes after intracolonic administration, visceromotor response (VMR) to increasing pressures of colorectal distension was performed. Data are expressed as mean±SEM, n=5 mice per group.
The analgesic properties of the C12-Asn-GABA was assessed in a mouse colitis model. Dextran sulfate sodium (DSS) at 3% during 5 days was added in the drinking water in order to induce colitis.

[2] = Colon and blood levels after intracolonic administration (LC-MS/MS); format: in vivo, mouse; settings: intracolonic 10 μM; 30 minutes or 4 hours; vs vehicle
Experimental: FIG. 6: C12-Asn-GABA inhibits capsaicin-induced visceral hypersensitivity without altering Intestinal contraction. Mice received intracolonic administration of C12-Asn-GABA (10 μM; black symbols) or vehicle (40% ethanol; white symbols) and 30 minutes or 4 hours later colon (A) and blood (B) were harvested in order to quantify C12-Asn-GABA by LC-MS/MS. Data are expressed as mean±SEM, n=8 mice per group. […] Mice received intracolonic administration of C12-Asn-GABA (10 μM; black symbols) or vehicle (40% ethanol; white symbols) and 30 minutes or 4 hours later an intracolonic administration of capsaicin (100 μg/mouse; square) or its vehicle (40% ethanol; circle). Fifteen minutes after capsaicin or vehicle treatment, visceromotor response (VMR) to increasing pressures of colorectal distension was performed. Data are expressed as mean±SEM, n=7-8 mice per group. […] Ex vivo measurement of duodenal mechanical contraction frequency (B) and amplitude (C) in response to Krebs-Ringer solution (control; white bar), to DMSO 0.2% (vehicle; gray bar) or to C12-Asn-GABA (10 μM; black bar). Data are expressed as mean±SEM, n=5-6 per group. […]
In a first set of experiment, we assessed the ability of the C12-Asn-GABA to cross the epithelial barrier, in vivo. […] The impact of C12-Asn-GABA on visceral hypersensitivity was assessed by measuring the visceromotor responses (VMR) to colorectal distension (CRD). […]

[3] = test system: mouse sensory neurons activated by capsaicin; assay: Calcium flux in sensory neurons activated by capsaicin (TRPV1 agonist); format: cell-based; settings: capsaicin 125 nM; pretreatment with increasing amounts of compound
Experimental: FIG. 4: C12-Asn-GABA inhibits neuronal activation via the GABA B receptor. Amplitude of intracellular calcium mobilization (ΔF/F; right panel) in mouse sensory neurons and percentage of responding neurons (left panel) pretreated with increasing amounts of C12-Asn-GABA (black circle) or vehicle (HBSS; white circle) and treated with capsaicin (125 nM; A) or a mix of G protein coupled receptor agonists (histamine, serotonin and bradykinin 10 μM each; B). Data are represented as mean±SEM; n=4 independent experiments of 3 wells per condition and 30-80 neurons per well. […] Percentage of responding neurons pretreated with increasing amounts of saclofen (black circle) or vehicle (HBSS; white circle) and treated with C12-Asn-GABA (10 μM) and capsaicin (125 nM; C) or a mix of G protein coupled receptor agonist (histamine, serotonin and bradykinin 10 μM each; D). Data are represented as mean±SEM; n=4 independent experiments of 3 wells per condition and 30-80 neurons per well.
FIG. 7: C14-Asn-GABA inhibits neuronal activation by capsaicin. Amplitude of intracellular calcium mobilization (F/F; A) in mouse sensory neurons and percentage of responding neurons (B) pretreated with 10 μM of C14-Asn-GABA (black bar) or vehicle (HBSS; white bar) and treated with capsaicin (125 nM). Data are represented as mean±SEM; n=3 independent experiments of 3 wells per condition and 35-82 neurons per well.
(§1) Male C57B16 mice (6-8 weeks) were used to produce primary cultures of dorsal root ganglia (DRG) sensory neurons for calcium flux experiments, and to perform studies of colorectal distention and intestinal isotonic contraction. All procedures were approved by Institutional Animal Care Committees (CEEA 122).
To determine whether C12-Asn-GABA or C12-Asn-BABA is capable of signaling to sensory nerves, calcium mobilization studies were performed on primary cultures of mouse dorsal root ganglia (DRG) neurons. […]

[4] = test system: mouse dorsal root ganglia (DRG) neurons; assay: Calcium mobilization in primary DRG sensory neurons, basal (unstimulated); format: cell-based; settings: 10 μM
Experimental: as §1
To determine whether C12-Asn-GABA or C12-Asn-BABA is capable of signaling to sensory nerves, calcium mobilization studies were performed on primary cultures of mouse dorsal root ganglia (DRG) neurons. […] The same experiments were thereafter performed in neurons activated by either an agonist of the receptor calcium channel TRPV1 (capsaicin) or by a mix of agonists (histamine, serotonin and bradykinin) for G protein coupled receptors (GPCR) implicated in visceral hypersensitivity. Exposure of neurons to either capsaicin (125 nM) or the mix of GPCR agonists (histamine, bradykinin, serotonin, 10 μM each) induced an increase in calcium flux as shown by the higher % of responding neurons and amplitude of the response (ΔF/F) compared to the vehicle (FIG. 4A, 4B). […] To investigate whether the inhibitory effect of C12-Asn-GABA was associated to the GABA residue, neurons were treated with saclofen (10, 50, and 100 μM), a competitive antagonist of the GABAB receptor. […]

## CCCCCCCCCCCC(=O)NC(CC(N)=O)C(=O)NCCCC(=O)O (centres unmarked) [C12-Asn-GABA, C11 C(O)-Asn-gamma-aminobutyric acid]
[1]
  DSS-induced increase in VMR to CRD: significantly decreased for all distension pressures
[2]
  concentration in the blood: increased the concentration
  concentration in the colonic tissue: increased the concentration
[3]
  calcium flux increase induced by capsaicin (% responding neurons, amplitude ΔF/F): prevented by C12-Asn-GABA pretreatment in a dose-dependent manner
[4]
  calcium mobilization under basal (unstimulated) conditions: does not induce calcium mobilization
